Patent US9782484B2, “Method for producing a composite organic compound powder for medical use” (ACTIVUS PHARMA CO., LTD., priority 2008, dated 2017)

Columns and labels:
[1] = Size distribution of particles in suspension by particle size distribution analyzer (Delsa Nano S); format: physicochemical; details: starting compound suspended with 0.03% sodium lauryl sulfate
Protocol: Fine-pulverizing experiments will now be described in each of which a carboxyvinyl polymer and a lecithin were added. The average particle diameter before and after fine-pulverizing for a powder was measured using a BET type specific surface area analyzer (Macsorb model HM-1201, from Mountech Co., Ltd.). The particle diameter of particles in a suspension was measured using a particle size distribution analyzer (Delsa Nano S, from Beckman Coulter, Inc.). “D50” is the diameter of a particle having an integrated value of 50% as counted in order of decreasing particle size (or in order of increasing particle size) (called “median particle diameter”) in the size distribution. “D90” is the diameter of a particle having an integrated value of 90% as counted in order of increasing particle size (called “90% median diameter”) in the size distribution. “Dv” is the volume average diameter (called “average particle diameter”).
An experiment of improving a collection efficiency by addition of a lecithin to fine-pulverized particles will now be described. Unless otherwise stated, the average particle diameter of particles was measured using a BET type specific surface area analyzer (Macsorb model HM-1201, from Mountech Co., Ltd.). The particle diameter of particles in a suspension was measured using a particle size distribution analyzer (Delsa Nano S, from Beckman Coulter, Inc.). “D50” is the diameter of a particle having an integrated value of 50% as counted in order of decreasing particle size (or in order of increasing particle size) (called “median particle diameter”) in the size distribution. “D90” is the diameter of a particle having an integrated value of 90% as counted in order of increasing particle size (called “90% median diameter”) in the size distribution. “Dv” is the volume average diameter (called “average particle diameter”).

[2] = Average particle diameter of dried powder converted from BET specific surface area; format: physicochemical; details: starting organic compound powder, Table 1 and text
Protocol: According to the present invention, the “average particle diameter converted from the BET specific surface area” is calculated by converting a value of the specific surface area measured by the BET flow method (one-point type) to the diameter of a hypothetical spherical particle. The following formula 1 is a conversion formula for converting a value of the specific surface area to the diameter. Here, D is an average particle diameter, ρ is a solid density, S is a specific surface area, and α is a shape factor. α is 6 for spherical particles. D=α/(ρ·S) (formula 1)
The BET flow method is preferably a method for measuring the specific surface area by the following procedure. A mixed gas of nitrogen and helium is flowed into a cell in which a sample to be measured is placed, followed by cooling the sample with liquid nitrogen. Then, only nitrogen gas adsorbs to the surface of the sample. Subsequently, when the cell is returned to ordinary temperature, the desorption of the gas occurs. During the desorption of gas, the proportion of nitrogen gas in the mixed gas flowing through one detector becomes larger than the proportion of nitrogen gas flowing through another detector. The difference between signals from these detectors represents the adsorption amount, enabling the measurement of the specific surface area.
Fine-pulverizing experiments are first described in each of which a carboxyvinyl polymer was added. The average particle diameter before and after fine-pulverizing for a dried powder was calculated by converting, by the above-described formula 1, the BET specific surface area measured using a BET type specific surface area analyzer (Macsorb model […], from Mountech Co., Ltd.). The observation of the powder before and after fine-pulverizing was carried out using a scanning electron microscope (model SEM VE-7800, from Keyence Corporation).
Fine-pulverizing experiments will now be described in each of which a carboxyvinyl polymer and a lecithin were added. The average particle diameter before and after fine-pulverizing for a powder was measured using a BET type specific surface area analyzer (Macsorb model HM-1201, from Mountech Co., Ltd.). The particle diameter of particles in a suspension was measured using a particle size distribution analyzer (Delsa Nano S, from Beckman Coulter, Inc.). “D50” is the diameter of a particle having an integrated value of 50% as counted in order of decreasing particle size (or in order of increasing particle size) (called “median particle diameter”) in the size distribution. “D90” is the diameter of a particle having an integrated value of 90% as counted in order of increasing particle size (called “90% median diameter”) in the size distribution. “Dv” is the volume average diameter (called “average particle diameter”). […]

Row | Compound | 90% median diameter (D90) before fine-pulverizing [1] | average particle diameter (Dv) before fine-pulverizing [1] | median particle diameter (D50) before fine-pulverizing [1] | Average Particle Diameter before Fine-pulverizing [2]
1 | Nc1nc2c(ncn2COCCO)c(=O)[nH]1 [aciclovir] | 69,371 nm | 60,371 nm | 52,997 nm | –
2 | C[C@@H]1[C@H](O)[C@@H](C)/C=C/C=C/C=C/C=C/C=C/C=C/C=C/[C@H](O[C@@H]2O[C@H](C)[C@@H](O)[C@H](N)[C@@H]2O)C[C@@H]2O[C@](O)(C[C@@H](O)C[C@@H](O)[C@H](O)CC[C@@H](O)C[C@@H](O)CC(=O)O[C@H]1C)C[C@H](O)[C@H]2C(=O)O [amphotericin B] | 15,181 nm | 13,423 nm | 11,843 nm | –
3 | O=C(O)Cc1ccc(-c2ccccc2)cc1 [felbinac] | – | – | – | 34,000 nm
4 | CCC(=O)O[C@]1(C(=O)SCF)[C@H](C)C[C@H]2[C@@H]3C[C@H](F)C4=CC(=O)C=C[C@]4(C)[C@@]3(F)[C@@H](O)C[C@@]21C [fluticasone propionate] | – | – | – | 7,850 nm
5 | COc1ccc2c(c1)c(CC(=O)O)c(C)n2C(=O)c1ccc(Cl)cc1 [indomethacin] | – | – | – | 3,960 nm
6 | Clc1ccc(COC(Cn2ccnc2)c2ccc(Cl)cc2Cl)c(Cl)c1 (stereo not shown) [miconazole] | – | – | – | 10,900 nm
